Measured values taken from US20240217957A1, “HETEROCYCLIC COMPOUND AND USE THEREOF” (TAKEDA PHARMACEUTICAL COMPANY LIMITED, priority 2022, published 2024).

biological target: T1, human OX2 receptor (Homo sapiens, UniProt O43614); experiment: Measurement of orexin type 2 receptor agonist activity (calcium fluorescence, Fluo-4 AM, FDSS); assay type: cell-based; settings: compound at 3 μM; CHO cells forcibly expressing human OX2 receptor; DMSO = 0%, 10 nM orexin A (human) = 100%
T1 construct: expressed in transfected cells
T1 sequence (O43614 1-444): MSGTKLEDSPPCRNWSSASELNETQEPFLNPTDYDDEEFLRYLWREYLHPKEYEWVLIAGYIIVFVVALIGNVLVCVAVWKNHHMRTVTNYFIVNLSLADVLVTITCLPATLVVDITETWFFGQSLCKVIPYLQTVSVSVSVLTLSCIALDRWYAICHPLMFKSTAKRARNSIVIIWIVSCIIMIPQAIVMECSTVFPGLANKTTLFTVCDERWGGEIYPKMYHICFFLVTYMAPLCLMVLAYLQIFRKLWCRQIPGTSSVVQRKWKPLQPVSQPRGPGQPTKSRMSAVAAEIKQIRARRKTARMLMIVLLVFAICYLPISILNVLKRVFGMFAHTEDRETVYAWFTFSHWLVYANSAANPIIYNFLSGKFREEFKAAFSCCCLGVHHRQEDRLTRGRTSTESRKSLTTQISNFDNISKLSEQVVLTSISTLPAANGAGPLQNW
Protocol: In order to obtain cell clones that stably express human orexin type 2 receptor, human orexin type 2 (residues 1-444, NCBI Reference Sequence: AK314279) was constructed in a pcDNA3.1 (+) vector (Invitrogen) to express in mammalian cells. This plasmid DNA was transfected into CHO-K1 cells by electroporation, and stable clones were obtained by limiting dilution using resistance to G418 as a selection marker.
CHO cells in which human OX2 receptor was forcibly expressed were seeded at 10,000 cells/well into a 384-well black transparent bottom plate (BD falcon), and were incubated at 37° C., 5% CO2 for 1 day after incubation at room temperature for 30 minutes. After removing the cell plate medium, assay buffer containing calcium indicator A (HBSS (Thermo Fisher Scientific), 20 mM HEPES (Thermo Fisher Scientific), 0.1% BSA (Sigma-Aldrich), 2.5 μg/mL Fluo-4 AM (Dojin Kagaku), 0.08% Pluronic F127 (Dojin Kagaku), 1.25 mM probenecid (Dojin Kagaku)) was added at 30 μL/well. After incubation in a 5% CO2 incubator at 37° C. for 30 minutes, it was incubated at room temperature for another 30 minutes. Add 10 μL/well of the test compound diluted with assay buffer B (HBSS, 20 mM HEPES, 0.1% BSA), and use FDSS uCELL (Hamamatsu Photonics) to measure the fluorescence value every 1 second for 1 minute, and then every 2 seconds for […]. It was measured for 1 minute and 40 seconds. The amount of fluorescence value when DMSO is added instead of the test compound is defined as 0%, and the amount of fluorescence value when orexin A (human) (Peptide Institute) with a final concentration of 10 nM is added is defined as 100%. The activity (%) of the test compound was calculated.

| Compound | OX2R agonist activity (3 μM, %) [%] |
| --- | --- |
| Cc1cnc([C@@H]2CC(N3C[C@H](F)[C@H](NS(=O)(=O)C(F)F)C3)=NO2)c(-c2c(F)cccc2F)c1 [Example 81, N-[(3R,4S)-1-{(5S)-5-[3-(2,6-difluorophenyl)-5-methylpyridin-2-yl]-4,5-dihydro-1,2-oxazol-3-yl}-4-fluoropyrrolidin-3-yl]-1,1-difluoromethanesulfonamide] | 100 |
| CS(=O)(=O)N[C@H]1CCN(C2=NOC(c3ccccc3-c3c(F)cccc3F)C2)C1 (stereo partly drawn) [Example 1, N-{(3S)-1-[5-(2′,6′-difluoro[1,1′-biphenyl]-2-yl)-4,5-dihydro-1,2-oxazol-3-yl]pyrrolidin-3-yl}methanesulfonamide] | 103 |
| CS(=O)(=O)N[C@@H]1CN(C2=NOC(c3c(F)cc(F)cc3-c3c(F)cccc3F)C2)CC1(F)F (stereo partly drawn) [Example 156, N-{(3R)-4,4-difluoro-1-[5-(2′,3,5,6′-tetrafluoro[1,1′-biphenyl]-2-yl)-4,5-dihydro-1,2-oxazol-3-yl]pyrrolidin-3-yl}methanesulfonamide] | 94 |
| CCS(=O)(=O)N[C@@H]1CN(C2=NO[C@H](c3ncc(C)cc3-c3c(F)cc(F)cc3F)C2)CC1(F)F [Example 47, N-[(3R)-4,4-difluoro-1-{(5S)-5-[5-methyl-3-(2,4,6-trifluorophenyl)pyridin-2-yl]-4,5-dihydro-1,2-oxazol-3-yl}pyrrolidin-3-yl]ethanesulfonamide] | 93 |
| O=S(=O)(N[C@@H]1CN(C2=NOC(c3ncc(Cl)cc3-c3c(F)cccc3F)C2)C[C@@H]1F)C1CC1 (stereo partly drawn) [Example 98, N-[(3R,4S)-1-{5-[5-chloro-3-(2,6-difluorophenyl)pyridin-2-yl]-4,5-dihydro-1,2-oxazol-3-yl}-4-fluoropyrrolidin-3-yl]cyclopropanesulfonamide] | 108 |
| Cc1cnc([C@@H]2CC(N3C[C@H](F)[C@H](NS(=O)(=O)C4CC4)C3)=NO2)c(-c2c(F)cc(F)cc2F)c1 [Example 97, N-[(3R,4S)-4-fluoro-1-{(5S)-5-[5-methyl-3-(2,4,6-trifluorophenyl)pyridin-2-yl]-4,5-dihydro-1,2-oxazol-3-yl}pyrrolidin-3-yl]cyclopropanesulfonamide] | 103 |
| CS(=O)(=O)N[C@@H]1CN(C2=NOC(CF)(c3ncc(F)cc3-c3c(F)cc(F)cc3F)C2)CC1(F)F (stereo partly drawn) [Example 147, N-[(3R)-4,4-difluoro-1-{5-(fluoromethyl)-5-[5-fluoro-3-(2,4,6-trifluorophenyl)pyridin-2-yl]-4,5-dihydro-1,2-oxazol-3-yl}pyrrolidin-3-yl]methanesulfonamide] | 98 |
| CS(=O)(=O)N[C@@H]1CN(C2=NOC(c3ncc(F)cc3-c3c(F)cccc3F)(C(F)F)C2)CC1(F)F (stereo partly drawn) [Example 126, N-[(3R)-1-{5-(difluoromethyl)-5-[3-(2,6-difluorophenyl)-5-fluoropyridin-2-yl]-4,5-dihydro-1,2-oxazol-3-yl}-4,4-difluoropyrrolidin-3-yl]methanesulfonamide] | 98 |
| Cc1cnc([C@@H]2CC(N3C[C@@H](NS(C)(=O)=O)C(F)(F)C3)=NO2)c(-c2c(F)ccc(F)c2F)c1 [Example 54, N-[(3R)-4,4-difluoro-1-{5-[5-methyl-3-(2,3,6-trifluorophenyl)pyridin-2-yl]-4,5-dihydro-1,2-oxazol-3-yl}pyrrolidin-3-yl]methanesulfonamide] | 92 |
| Cc1cnc([C@@H]2CC(N3CC[C@H](NS(=O)(=O)C(F)F)C3)=NO2)c(-c2c(F)cc(F)cc2F)c1 [Example 66, 1,1-difluoro-N-[(3S)-1-{(5S)-5-[5-methyl-3-(2,4,6-trifluorophenyl)pyridin-2-yl]-4,5-dihydro-1,2-oxazol-3-yl}pyrrolidin-3-yl]methanesulfonamide] | 99 |
| O=S(=O)(N[C@@H]1CN(C2=NOC(c3ncc(F)cc3-c3c(F)cccc3F)C2)CC1(F)F)C1CC1 (stereo partly drawn) [Example 67, N-[(3R)-1-{5-[3-(2,6-difluorophenyl)-5-fluoropyridin-2-yl]-4,5-dihydro-1,2-oxazol-3-yl}-4,4-difluoropyrrolidin-3-yl]cyclopropanesulfonamide] | 98 |
| COCC1(NS(C)(=O)=O)CCN(C2=NO[C@H](c3ncc(C)cc3-c3c(F)cccc3F)C2)C1 (stereo partly drawn) [Example 73, N-[1-{(5S)-5-[3-(2,6-difluorophenyl)-5-methylpyridin-2-yl]-4,5-dihydro-1,2-oxazol-3-yl}-3-(methoxymethyl)pyrrolidin-3-yl]methanesulfonamide] | 102 |
| CS(=O)(=O)N[C@@H]1CN(C2=NOC(c3ncc(Br)cc3-c3c(F)cc(F)cc3F)C2)C[C@@H]1F (stereo partly drawn) [Example 85, N-[(3R,4S)-1-{5-[5-bromo-3-(2,4,6-trifluorophenyl)pyridin-2-yl]-4,5-dihydro-1,2-oxazol-3-yl}-4-fluoropyrrolidin-3-yl]methanesulfonamide] | 99 |
| O=S(=O)(CF)N[C@@H]1CN(C2=NO[C@H](c3ncc(F)cc3-c3c(F)cc(F)cc3F)C2)CC1(F)F [Example 128, N-[(3R)-4,4-difluoro-1-{(5S)-5-[5-fluoro-3-(2,4,6-trifluorophenyl)pyridin-2-yl]-4,5-dihydro-1,2-oxazol-3-yl}pyrrolidin-3-yl]-1-fluoromethanesulfonamide] | 105 |
| COCS(=O)(=O)N[C@@H]1CN(C2=NO[C@H](c3ncc(C)cc3-c3c(F)cc(F)cc3F)C2)C[C@@H]1F [Example 91, N-[(3R,4S)-4-fluoro-1-{(5S)-5-[5-methyl-3-(2,4,6-trifluorophenyl)pyridin-2-yl]-4,5-dihydro-1,2-oxazol-3-yl}pyrrolidin-3-yl]-1-methoxymethanesulfonamide] | 98 |
| CCS(=O)(=O)N[C@@H]1CN(C2=NOC(c3ncc(Cl)cc3-c3c(F)cc(F)cc3F)C2)CC1(F)F (stereo partly drawn) [Example 42, N-[(3R)-1-{5-[5-chloro-3-(2,4,6-trifluorophenyl)pyridin-2-yl]-4,5-dihydro-1,2-oxazol-3-yl}-4,4-difluoropyrrolidin-3-yl]ethanesulfonamide] | 100 |
| CS(=O)(=O)NC1CCN(C2=NOC(c3ccccc3-c3c(F)cccc3F)C2)CC1 (stereo not drawn) [Example 7, N-{1-[5-(2′,6′-difluoro[1,1′-biphenyl]-2-yl)-4,5-dihydro-1,2-oxazol-3-yl]piperidin-4-yl}methanesulfonamide] | 53 |
| CCS(=O)(=O)N[C@@H]1CN(C2=NOC(c3ncc(Cl)cc3-c3c(F)cccc3F)C2)C[C@@H]1F (stereo partly drawn) [Example 133, N-[(3R,4S)-1-{5-[5-chloro-3-(2,6-difluorophenyl)pyridin-2-yl]-4,5-dihydro-1,2-oxazol-3-yl}-4-fluoropyrrolidin-3-yl]ethanesulfonamide] | 107 |
